The test concerns the target Isoform Bcl-X(L) of Bcl-2-like protein 1 (Bcl-xL) (Homo sapiens, UniProt Q07817). Kind of test: Bim-Bcl-XL interaction inhibitors, hit retest, confirmation, biochemical, dose response, multiplexed, HTS hits (AID 2084). The settings on record: inactive by the depositor's call.
Sequence of Isoform Bcl-X(L) of Bcl-2-like protein 1 (Bcl-xL) (Q07817 whole entry G70A, canonical isoform): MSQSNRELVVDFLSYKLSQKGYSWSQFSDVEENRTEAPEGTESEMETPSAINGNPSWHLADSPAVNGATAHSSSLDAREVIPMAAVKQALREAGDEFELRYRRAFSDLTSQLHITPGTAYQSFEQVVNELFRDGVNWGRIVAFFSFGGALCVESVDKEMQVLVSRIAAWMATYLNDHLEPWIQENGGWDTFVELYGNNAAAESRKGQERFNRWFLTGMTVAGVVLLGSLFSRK
Consider `O=c1[nH]c(O)c(Cc2ccc(-c3cc(Cl)ccc3[N+](=O)[O-])o2)c(=O)[nH]1`, for which the midpoint of the response, the EC50, lay at 26.4 µM. As for `CNC1CCC(Br)CC(C(=O)C=Cc2cccc(OC)c2OC)C1=O` (stereo not given) [4-bromo-2-[(E)-3-(2,3-dimethoxyphenyl)-1-oxoprop-2-enyl]-7-(methylamino)-1-cycloheptanone], the figure is 45.5 µM. `Cc1ccc(-c2nc3c(c(=O)[nH]c(=O)n3Cc3ccccc3)n2C)o1` [7-methyl-8-(5-methyl-2-furanyl)-3-(phenylmethyl)purine-2,6-dione] showed a concentration giving a half-maximal response (EC50) of 43.5 µM. In turn, `Clc1nc(NCc2cccnc2)nc(N2CCOCC2)n1` [MLS000121154] showed an EC50 of 15.1 µM. `COc1ccc(CCNC(=O)c2ccc3nc(-c4ccco4)c(-c4ccco4)nc3c2)cc1OC` [N-[2-(3,4-dimethoxyphenyl)ethyl]-2,3-di-2-furylquinoxaline-6-carboxamide] returned a concentration giving a half-maximal response (EC50) of 18.4 µM.

In general, EC50 refers to the concentration giving half of the maximal effect. The low end stands for higher potency in that assay, the high end for lower potency in that assay.

These data come from BindingDB's records for doi:10.7270/Q2862DWJ (Nmmlsc, 2009).
